Earlier results, collected in US20070293937A1, “Endoluminal medical device for local delivery of cathepsin inhibitors, method of making and treating” (MED Institute, Inc., priority 2006, published 2007).
pKi: −log10 of the molar value. Blank lines part the entries; values can stand above or below the compound they belong to. Where a SMILES comes first, the peptide text is derived from it. The star is where a group is joined. CHN2 = [N-]=[N+]=C*

How the values were obtained:
[1] = biological target: cathepsin C (Homo sapiens, UniProt P53634); settings: natural inhibitors
[2] = system: cathepsin C; settings: Green and Shaw, J. Biol. Chem. 1981
[3] = system: purified cathepsin C; settings: as found by Kam et al.
[4] = system: cathepsin C; settings: Tompson et al.

cathepsin C (Homo sapiens, UniProt P53634), sequence (P53634 25-463, species assumed): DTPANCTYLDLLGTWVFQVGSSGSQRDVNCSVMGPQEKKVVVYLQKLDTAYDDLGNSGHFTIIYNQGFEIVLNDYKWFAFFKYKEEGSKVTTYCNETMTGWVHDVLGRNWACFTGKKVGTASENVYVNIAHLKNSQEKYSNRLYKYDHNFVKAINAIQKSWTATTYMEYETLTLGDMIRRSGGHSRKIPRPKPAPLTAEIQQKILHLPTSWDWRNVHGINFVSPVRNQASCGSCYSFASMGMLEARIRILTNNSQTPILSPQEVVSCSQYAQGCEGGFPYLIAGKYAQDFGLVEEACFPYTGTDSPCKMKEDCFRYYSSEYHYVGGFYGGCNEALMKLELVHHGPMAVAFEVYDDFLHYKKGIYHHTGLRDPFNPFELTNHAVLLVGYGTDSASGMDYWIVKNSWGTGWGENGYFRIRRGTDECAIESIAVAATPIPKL

Compound: CC(=O)N[C@@H](CC(C)C)C(=O)N[C@@H](CC(C)C)C(=O)N[C@H](C=O)CCCNC(=N)N [leupeptin]
- inhibition of cathepsin C (in words) [1]: inhibit cathepsin C at high inhibitor concentrations

Compound: [N-]=[N+]=CC(=O)[C@H](Cc1ccccc1)NC(=O)CN [Gly-Phe-CHN2] (H-Gly-Phe-CHN2)
- kobs/[l] [2]: 10^4 M^−1 s^−1
- inhibition of cathepsin C (in words) [3]: potent inhibitor

Compound: CS(=O)(=O)C=CC(Cc1ccccc1)NC(=O)CN (stereo not drawn) [Gly-Phe-VS—CH3]
- k2/Kl ([4]; J. Med. Chem. 1986): 56 M⁻¹ s⁻¹

Compound: CC(C)C[C@H](NC(=O)[C@H]1O[C@@H]1C(=O)O)C(=O)NCCCCN=C(N)N [Compound E-64, E-64]
- inhibition of cathepsin C (in words) [1]: inhibit cathepsin C at high inhibitor concentrations

- pKi ([4]; reversible nitrile inhibitor, J. Med. Chem. 1986, read-out: Kl value): 5.57
Compound: N#CC(Cc1ccccc1)NC(=O)CN (stereo not shown) [Gly-NHCH(CH2Ph)CN]

Compound: cystatin
- inhibition of cathepsin C (in words) [1]: inhibit cathepsin C at high inhibitor concentrations
